Measured values from PubChem BioAssay AID179 (DTP/NCI, 2004).
Values joined by “and” are separate entries in the source; they are usually repeats but may differ in a detail not shown here. Identical values can stand only once. Active and inactive are the calls of the source.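 How the source made its calls: active means compounds giving half or more protection of infected cells from virus-caused growth loss, again on retest; inactive means the rest.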

Test system: CEM cells HIV-1 protection, formazan growth assay
Experiment: NCI AIDS Antiviral Assay
Settings: for IC50: measured here: growth of uninfected CEM cells
How it was run: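 Steps: treat uninfected and HIV-1-infected human CEM cells at five drug levels; quantify growth by soluble formazan; retest any compound reaching 50% protection; classify actives from the retest.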

Compound	EC50	IC50	outcome
CCN(CC)CCNc1nc2c([nH]1)c(=O)n(C)c(=O)n2C	> 759 µM	219 µM	–
O=C(CC(=O)n1nc(-c2ccccc2)c(N=Nc2ccc(Cl)cc2)c1-c1ccccc1)Nc1ccc(Cl)cc1	> 18.2 µM	> 18.2 µM	–
COc1cccc([N+](=O)[O-])c1N=O	> 200 µM	102 µM	–
COC(=O)c1c(C)c2c(c(C)c1O)OC(=O)c1c(C)cc(O)c(C=O)c1O2	186 µM	> 200 µM	–
O=[N+]([O-])c1cccc(/C=N/Nc2ccc(S(=O)(=O)O)cc2)c1	> 724 µM	646 µM	–
CCCCCCCCCCCCCCCCc1c(C(=O)OC)nc(NC#N)[nH]c1=O	> 14.5 µM	> 14.5 µM	–
c1ccc2[nH]c(C3=NCCN3)nc2c1	> 53.7 µM	> 53.7 µM	–
N#CN/C(N)=N/CO	> 776 µM	46.8 µM	–
CCCCCC=C(c1cc(Cl)c(OC)c(C(=O)O)c1)c1cc(Cl)c(OC)c(C(=O)O)c1	129 µM and > 126 µM	155 µM and 83.2 µM	–
Nc1nc(N)c(-c2ccccc2)c(C(=O)Nc2nccs2)n1	> 22.9 µM	> 22.9 µM	–
O=C1N[C@@H](Cc2ccccc2)C(=O)N2CSC[C@H]12	> 631 µM	> 631 µM	–
C/C(=N\NC(=S)NCCCCNC(=S)N/N=C(\C)c1ccccn1)c1ccccc1	> 200 µM	1.62 µM	–
c1ccc2[nH]c(C3=NCCS3)nc2c1	> 1230 µM	240 µM	–
Oc1c2cccc1Cc1cccc3c1OCCOCCOCCOCCOc1c(cccc1Cc1cccc(c1O)C3)C2	> 200 µM	50.1 µM	–
O=C1NC(O)c2cc(Cl)cc(Cl)c2O1 (centres undefined)	–	–	inactive
Cc1ccc(CCCCCOc2ccc(C3=NCCO3)cc2)s1	–	–	inactive
CCN1C(Cl)=NS(=O)(=O)c2ccccc21	> 200 µM	91.2 µM	–

Compound	EC50	IC50	outcome
N=S(c1ccccc1)c1ccccc1[N+](=O)[O-] (centres undefined)	> 158 µM	1.7 µM	–
Cc1ccc(SCC(CF)OCn2cnc3c(=O)[nH]c(N)nc32)cc1 (centres undefined)	> 20 µM	> 20 µM	–
O=c1oc2ccccc2c(O)c1C(c1cc(OCc2ccccc2)cc(OCc2ccccc2)c1)c1c(O)c2ccccc2oc1=O	> 200 µM	9.55 µM	–
O=c1ccn(C2CCC3(CO)CC23)c(=O)[nH]1 (centres undefined)	> 50.1 µM	> 50.1 µM	–
N#CC(C(=O)CCC(=O)C(C#N)c1ccccc1)c1ccccc1 (centres undefined)	> 398 µM	> 398 µM	–
Cc1cc(C)nc(NC(=O)Nc2ccccc2)c1	> 200 µM	> 200 µM	–
CC1CCN(c2nnc(Cl)cc2C(=O)c2ccccc2)CC1	> 200 µM	52.5 µM	–
COc1ccc(C(=O)CCC2(C)OCCO2)cc1OC	> 646 µM	479 µM	–
COc1ccc2c(c1)CC1NC2Cc2ccccc21 (centres undefined)	–	–	inactive
NC(N)=NCCCC(N=c1c2ccccc2n(O)c2ccccc12)C(=O)O (centres undefined)	–	–	inactive
N=C(N)Oc1ccc(Cl)cc1	> 200 µM	26.9 µM	–
CCCCCCCCCCCCCCCCNc1ccn(C2OC(COP(=O)(O)OC3CC(n4cc(C)c(=O)[nH]c4=O)OC3CO)C(O)C2O)c(=O)n1 (centres undefined)	> 200 µM	19.1 µM	–
CSC1=N/C(=C\c2ccc(Cl)cc2)C(=O)N1CN1CCOCC1	> 200 µM	33.1 µM	–
COC(=O)Nc1nc2ccc(C(=O)c3ccc(F)cc3)cc2[nH]1	> 2 µM	0.0871 µM	–
COc1ccc(C(=O)N2CCN(c3ccc4c(c3)OCC(=O)N4)CC2)cc1OC	> 200 µM	> 200 µM	–
COC(=O)CC1C2CCC1C(=O)C2 (centres undefined)	> 200 µM	> 200 µM	–
CC1=CC(C)C(=O)N(C)C(C)=C1 (centres undefined)	> 1510 µM	457 µM	–
